Entries after “also recorded” stand apart in the source; their conditions may differ.
What was measured:
normal human fibroblasts [1] = assay: Cytotoxicity on normal human fibroblasts by MTT assay (FIG. 3); type: cell-based; conditions: 72 hours; for cytotoxic effects (MTT assay), in words: single dose, normal human fibroblasts, FIG. 3: increasing concentrations
Text: (§1) FIGS. 3-7 illustrate results of experiments designed to elucidate some of the biological properties that may be present in contemplated boron compounds/complexes. In these examples, we studied the action of two boron complexes: sodium fructo-borate (SFB) and sodium salicylato-borate (SSB), upon normal human fibroblasts, in comparison to untreated fibroblasts and ones treated with boric acid (BA, uncomplexed with any ligand). FIG. 3 depicts results of a single dose treatment of human fibroblasts with increasing concentrations of BA, SFB and SSB for 72 hours in order to determine their cytotoxic effects (by MTT assay).

normal human fibroblasts [2] = assay: H3Proline incorporation in human fibroblasts (FIG. 4); type: cell-based; conditions: single dose, 72 hours, vs BA, SFB, SSB
Description: FIG. 4 is a graph depicting experimental results of H3Proline incorporation (in human fibroblasts) upon treatment with A, B, and C compared to untreated cells.
FIG. 4 depicts results from treatment of normal human fibroblasts with a single dose of BA, SFB and SSB for 72 hours, whereupon the final degree of incorporation of H3Proline was determined. The degree of H3Proline incorporation is a measure of the ongoing biosynthesis of collagen in treated cells.

human fibroblasts = assay: H3Proline/H3Leucine incorporation in human fibroblasts (FIG. 5); type: cell-based; conditions: single dose, compared to untreated cells
normal human fibroblasts [3] = assay: Collagen synthesis: ratio of H3Proline to H3Thymidine incorporation in human fibroblasts (FIG. 6); type: cell-based; conditions: single dose, 72 hours
Description: FIG. 6 is a graph depicting experimental results of increase of collagen synthesis (measured by determination of ratio between incorporation of H3Proline and H3Thymidine) in human fibroblasts by treating them with A, B and C, compared to untreated cells.
FIG. 6 depicts the results of a single dose treatment of normal human fibroblasts with the selected compounds for 72 hours, in which case the increase of collagen synthesis was calculated by ratio between incorporation of H3Proline over the incorporation of H3Thymidine under the same experimental conditions. In this experiment, SFB was best at the concentration of 1 ug/ml, while at the concentration of 10 ug/ml its activity was next to BA. […] These properties are of special value for skin-rejuvenation purposes.

normal human fibroblasts [4] = assay: Multi-parameter analysis of biological activity, labeling cells with tritiated Uridine, Thymidine, Leucine and Proline (FIG. 7); type: cell-based; conditions: labeling for 8 hours
Text: FIG. 7 is a graph depicting a multi-parameter analysis of biological activity of complex B.
as §1
FIG. 7 depicts a multi-parameter analysis of biological activity of SFB.

HIV = conditions: cited from earlier work
[5] = system: rat cerebral microsomal preparations; conditions: cited from earlier work
human platelets = conditions: intact human platelets stimulated by thrombin or leukotriene B4; extracellular addition; cited from earlier work
neutrophiles = conditions: intact neutrophiles stimulated by thrombin or leukotriene B4; extracellular addition; cited from earlier work
cat fleas = conditions: ingestion by cat fleas; cited from earlier work
[6] = system: chick embryo pelvic cartilage; conditions: cited from earlier work
[7] = same concentration, great molar excess of glucose in culture medium

sodium fructo-borate [SFB]
fold less toxic than BA (boric acid) (normal human fibroblasts [1]; 100 ug/ml, MTT assay): ~4 times | cytotoxic effects (MTT assay), in words (normal human fibroblasts [1]): least toxic; also recorded: least toxicity | cytotoxic effects (MTT assay), in words (normal human fibroblasts [1]; listed as sodium fructo-borate): minimal cytotoxic effects | cytotoxic effects (MTT assay), in words (normal human fibroblasts [1]; listed as sodium fructoborate): considerably less toxic than boric acid | degree of incorporation of H3Proline (measure of collagen biosynthesis), in words (normal human fibroblasts [2]): most beneficial effect | preferred incorporation of H3Proline over H3Leucine, in words (human fibroblasts): quite close | increase of collagen synthesis (ratio H3Proline/H3Thymidine incorporation), in words (normal human fibroblasts [3]; 1 ug/ml): best | increase of collagen synthesis (ratio H3Proline/H3Thymidine incorporation), in words (normal human fibroblasts [3]; 10 ug/ml): next to BA | overall effects (tritiated Uridine, Thymidine, Leucine and Proline labeling), in words (normal human fibroblasts [4]): quite favorable and beneficial

O=C1O[B-]2(OC(=O)c3ccccc3O2)Oc2ccccc21 [SSB, sodium salicylato-borate]
preferred incorporation of H3Proline over H3Leucine, in words (human fibroblasts): best performance

O.O.O.O.O.O.O.O.O.O.[Na+].[Na+].[O-]B1OB2OB([O-])OB(O1)O2 [sodium borate, reference compound]
cytotoxic effects (MTT assay), in words (normal human fibroblasts [1]): minimal cytotoxic effects

CC(C)[C@@H](N)C(=O)O[C@H](C)[C@@H]1C/C=C\CC[C@H](O)C(C)(C)[C@@H]2CC[C@@H](C)[C@@]3(O2)O[B-]24O[C@@H](C(=O)O1)[C@]1(O[C@@H](CC[C@H]1C)C(C)(C)[C@H](O)CCC[C@@H]1C[C@H](OC(=O)[C@@H]3O2)[C@@H](C)O1)O4.[H+] [boromycin]
anti-HIV activity (HIV): anti-HIV antibiotic

NCCOB(c1ccccc1)c1ccccc1 [Example 2-APB, 2-amonoethoxydiphenyl borate]
inhibition of Ins(1,4,5)P3-induced Ca release [5]: inhibited | inhibition of cytosolic Ca rise (human platelets): inhibited | inhibition of cytosolic Ca rise (neutrophiles): inhibited

OB(O)O [BA, boric acid]
larvicidal effects (cat fleas): Larvicidal effects | intracellular synthesis of proteoglycans, collagen and TNF-alpha ([6]; 1-3% aqueous boric acid): strongly decreases | release of proteoglycans, collagen and TNF-alpha into the culture medium ([6]; 1-3% aqueous boric acid): induces release | intracellular protein synthesis [6, 7]: does not decrease | protein secretion into the culture medium [6, 7]: still stimulates

O.O.O.O.O=BOB1OB(OB=O)OB2OB([O-])OB([O-])OB(O1)O2.[Na+].[Na+] [disodium octaborate tetrahydrate]
larvicidal effects (cat fleas): Larvicidal effects

Reference: patent US6080425A, “Boron compounds and complexes as skin-rejuvenating agents” (TopGene, Inc., priority 1998, dated 2000)
